Experimental data as given in patent US10081629B2, “Amide derivatives and pharmaceutically acceptable salts thereof, preparation method thereof and medicinal application thereof” (Shanghai Hengrui Pharmaceutical Co., Ltd., priority 2014, dated 2018).

Columns and labels:
[1] = system: secretion of PGE2 by A549 cells stimulated with IL-1β; test: Inhibition of the secretion of PGE2 by A549 cells stimulated with IL-1β; format: cell-based; conditions: Homo sapiens, A549; IL-1β 0.2 ng/mL, 24 hours
Summary of the method: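 A549 cells pretreated 30 min at 37° C with compound (seven concentrations, 0.011–11111 nM) before IL-1β at 0.2 ng/mL final, then 24 h at 37° C.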

[2] = Pharmacokinetics assay in rats; format: in vivo; conditions: both sexes, Sprague-Dawley, rat, plasma, po, SD rats, intragastric, 5 mg/kg; for Vd/F: read-out: Apparent Distribution Volume Vz/F; for AUC: read-out: Area Under Curve AUC; for CL/F: read-out: Clearance CLz/F; for half-life: read-out: Half-Life T½ (converted); for MRT: read-out: Mean Residence Time MRT; for Cmax: read-out: Plasma Conc. Cmax
Description: Rats were used as test animals. The drug concentration in plasma at different time points was determined by LC/MS/MS after administration of the compounds of Example 8, Example 11, Example 14, Example 17, Example 20, Example 27, Example 33, Example 35, Example 36, Example 37 and Example 48 to rats. The pharmacokinetic behavior of the present compounds was studied and evaluated in rats.
Forty four (44) healthy adult Sprague-Dawley (SD) rats, half male and half female, which were purchased from SINO-BRITSH SIPPR/BK LAB. ANIMAL LTD., CO, with Certificate No.: SCXK (Shanghai) 2008-0016, were divided into 11 groups, with 4 rats in each group.
The appropriate amount of test compounds was weighed, and mixed with 25 μL Tween 80 and Labrasol to prepare a 0.6 mg/mL suspension by ultrasonication.
After an overnight fast, 44 SD rats, half male and half female, were divided into 11 groups, and administered intragastrically at a dose of 5.0 mg/kg and an administration volume of 10 mL/kg.
Blood (0.1 mL) was sampled from the orbital sinus before administration and 0.5 h, 1.0 h, 2.0 h, 4.0 h, 6.0 h, 8.0 h, 11.0 h, and 24.0 h after administration. The samples were stored in EDTA anticoagulation tubes, and centrifuged for 5 minutes at 3,500 rpm to separate the blood plasma. The plasma samples were stored at −20° C. The rats were fed 2 hours after administration.
The plasma concentration of the test compounds in rat after intragastric administration was determined by LC-MS/MS. The linearity of the method is 5.00-2000 ng/mL and 1.00-2000 ng/ml, and the minimum of quantification is 5.00 ng/mL and 1.00 ng/mL.
Plasma samples were analyzed after pretreatment by protein precipitation.

human mPGES1 = human mPGES1 (Homo sapiens (Human), UniProt O14684); test: Inhibition activity for human mPGES1 (enzyme assay, PGE2 HTRF); format: biochemical; conditions: membrane protein from HEK-293 F transfected with human mPGES1
Chain of human mPGES1 (O14684 whole entry): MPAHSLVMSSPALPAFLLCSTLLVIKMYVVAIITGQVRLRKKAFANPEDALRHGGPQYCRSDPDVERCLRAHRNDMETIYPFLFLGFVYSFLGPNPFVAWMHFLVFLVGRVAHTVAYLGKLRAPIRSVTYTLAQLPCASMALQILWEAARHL

SMILES	IC50 [1]	Vd/F [2]	AUC [2]	CL/F [2]	half-life [2]	MRT [2]	Cmax [2]	IC50 (human mPGES1)
CC(C)(F)C(=O)NCc1cnc(C(F)F)c(C(=O)Nc2ccc3oc(-c4cccc(C(F)(F)F)c4)cc3c2)c1 [Example 48, 2-(Difluoromethyl)-5-(((2-fluoro-2-methyl-propanoyl)amino)methyl)-N-(2-(3-(trifluoromethyl)phenyl)benzofuran-5-yl)nicotinamide]	14.1 nM	7.53 ± 1.69 L/kg	2260 ± 767 ng·h/mL	41 ± 16.7 mL/min/kg	2.3 ± 0.76 h	6.3 ± 1.62 h	263 ± 66 ng/mL	3.58 nM
Cn1c(-c2ccc(F)cc2)cc2cc(NC(=O)c3cc(CNC(=O)C(C)(C)C)ccc3Cl)ccc21 [Example 11, 2-chloro-N-(2-(4-fluorophenyl)-1-methyl-1H-indol-5-yl)-5-((2,2-dimethylpropanoylamino)methyl)benzamide]	16.3 nM	5.83 ± 1.14 L/kg	7230 ± 5320 ng·h/mL	19.2 ± 14.1 mL/min/kg	5.27 ± 3.25 h	10.4 ± 5.1 h	572 ± 167 ng/mL	5.14 nM
